From US8183237B2, “Benzenesulfonanilide compounds suitable for treating disorders that respond to modulation of the serotonin 5-HT6 receptor” (Abbott Laboratories, priority 2009, dated 2012)
Structures can show the parent of a compound that is named as a salt. Where two headings read alike, the source gives them in different places.

Tests used:
h-5-HT6 receptor = biological target: T1, h-5-HT6 receptor (Homo sapiens, UniProt P50406); test: 5-HT6 receptor binding assay (displacement of [3H]-LSD)
T1 construct: expressed in transfected cells; host or cells: HEK293
T1 sequence (P50406 whole entry): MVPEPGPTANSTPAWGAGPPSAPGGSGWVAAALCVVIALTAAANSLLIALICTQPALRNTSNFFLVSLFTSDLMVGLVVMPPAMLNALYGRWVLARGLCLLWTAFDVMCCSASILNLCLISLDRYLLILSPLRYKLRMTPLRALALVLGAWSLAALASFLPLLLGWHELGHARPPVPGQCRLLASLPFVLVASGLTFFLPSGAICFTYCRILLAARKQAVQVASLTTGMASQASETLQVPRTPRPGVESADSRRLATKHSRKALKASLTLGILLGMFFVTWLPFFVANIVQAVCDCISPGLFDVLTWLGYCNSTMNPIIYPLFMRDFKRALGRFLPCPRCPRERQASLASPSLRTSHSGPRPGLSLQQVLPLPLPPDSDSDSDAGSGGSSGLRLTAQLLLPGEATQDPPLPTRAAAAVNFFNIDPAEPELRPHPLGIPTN
Description: Displacement of radioligands binding to the following cloned human receptors
(§1) 1. Preparation of Membranes by Ultrasonic Treatment and Differential Centrifugation
Cells from stable clonal cell lines expressing the corresponding receptor (5-HT6, α1-adrenergic, dopamine D2 or histamine H1 receptors) were washed with PBS (w/o Ca^++, Mg^++) and harvested in PBS with 0.02% EDTA. The cells were collected by centrifugation at 500 g for 10 min. at 4° C., washed with PBS and centrifuged (500 g, 10 min. 4° C.). The pellets were stored at −80° C. until use. For membrane preparation, the thawed cell pellet was resuspended in ice-cold sucrose buffer (0.25 M sucrose, 10 mM Hepes (pH 7.4), 1 mM Phenylmethylsulfonyl fluoride (PMSF) in DMSO, 5 μg/ml Pepstatin-A, 3 mM EDTA, 0.025% Bacitracin) and homogenized with a Branson Sonifier W-250 (Settings: Timer 4; Output Control 3; Duty Cycle constant; 2 to 3 cycles). Cell disruption was checked with the aid of a microscope. Remaining unbroken cells were pelleted at 1.000 g for 10 min. at 4° C. The sucrose buffer supernatant was then centrifuged at 60.000 g for 1 h at 4° C. (Beckman Ultrazentrifuge XL 80). The pellet was resuspended in 30 ml ice-cold Tris buffer (20 mM TRIS (pH 7.4), 5 μg/ml Pepstatin A, 0.1 mM PMSF, 3 mM EDTA) by pipetting through a 10 ml serological pipet and centrifuged for 1 h at 4° C. at 60.000 g. A final resuspension was performed in a small volume of ice-cold Tris buffer (see above) by pressing through a serological pipet followed by ultrasonic treatment with a Branson Sonifier W-250 (Settings: Timer 1; Output Control 3; Duty Cycle constant; 1 cycle). Protein concentration was determined (BCA-Kit; Pierce) and aliquots stored at −80° C. or in liquid nitrogen for long-term storage.
(§2) 2. Receptor Binding Experiments
All receptor binding experiments were carried out in the corresponding assay buffer in a total volume of 200 μl in the presence of various concentrations of test compound (10^−5 M to 10^−9 M, tenfold serial dilution, duplicate determinations). The assays were terminated by filtration on polyethylenimine (PEI 0.1% or 0.3%) presoaked Packard Unifilter Plates (GF/C or GF/B) with a Tomtec MachIII U 96 well-plate harvester. After the plates had been dried for 2 h at 55° C. in a drying chamber scintillation cocktail (BetaPlate Scint; PerkinElmer) was added. Radioactivity was measured in a Microbeta Trilux two hours after the addition of the scintillation mixture. Data derived from liquid scintillation counting were analysed by iterative non-linear regression analysis with the use of the Statistical Analysis System (SAS): a program similar to “LIGAND” as described by Munson and Rodbard (Analytical Biochemistry 107, 220-239 (1980).
a) 5-HT6 Receptor Binding Assay
HEK293 cells stably expressing the h-5-HT6 receptor (NCBI Reference Sequence XM 001435) were cultured in RPMI1640 medium supplemented with 25 mM HEPES, 10% fetal calf serum and 1-2 mM glutamine. The membrane preparation was performed as described in section 1. […] Non-specific binding was defined with 1 μM methiothepin. The binding reaction was carried out for 3.5 h at room temperature. […]
Data derived from liquid scintillation counting were analyzed by iterative non-linear regression analysis with the use of the Statistical Analysis System (SAS): a program similar to “LIGAND” as described by Munson and Rodbard (Anal. Biochem. 1980, 107, 220-239). […] IC50, nH and Ki values were expressed as geometrical mean.

dopamine D2 receptor = biological target: T2, dopamine D2 receptor (Homo sapiens, UniProt P14416); test: Dopamine D2 receptor binding assay (displacement of [125I]-iodospiperone); conditions: saturation binding experiments, HEK293 D2 membranes
T2 construct: expressed in transfected cells; host or cells: HEK293
T2 sequence (P14416 whole entry): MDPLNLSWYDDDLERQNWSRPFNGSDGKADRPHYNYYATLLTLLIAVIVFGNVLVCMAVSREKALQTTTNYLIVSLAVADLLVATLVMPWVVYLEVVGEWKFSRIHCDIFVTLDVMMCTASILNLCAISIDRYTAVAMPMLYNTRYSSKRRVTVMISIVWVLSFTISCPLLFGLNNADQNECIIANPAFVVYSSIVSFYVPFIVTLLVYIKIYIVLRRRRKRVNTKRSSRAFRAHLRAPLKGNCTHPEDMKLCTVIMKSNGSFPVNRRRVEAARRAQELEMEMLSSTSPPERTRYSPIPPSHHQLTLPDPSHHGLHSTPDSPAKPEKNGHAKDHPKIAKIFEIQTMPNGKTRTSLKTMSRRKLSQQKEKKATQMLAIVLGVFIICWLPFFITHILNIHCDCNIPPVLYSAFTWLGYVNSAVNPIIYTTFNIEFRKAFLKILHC
Description: as §1
The pellets were stored at −80° C. until use. […] (Beckman Ultrazentrifuge XL 80).
as §2
b) Dopamine D2 Receptor Binding Assay
Non-specific binding was defined with 1 μM haloperidol.

[1] = membranes of HEK293 cells stably expressing h-5-HT6 receptor, 1 nM [3H]-LSD, read-out: Ki (5HT6)

| Ki (h-5-HT6 receptor; [1]) | Compound | further results |
| --- | --- | --- |
| < 20 nM | Cc1ccc(NS(=O)(=O)c2ccccc2OC(F)F)cc1N1CCCN(C)CC1 [Example 5, 2-Difluoromethoxy-N-[4-methyl-3-(4-methyl-[1,4]diazepan-1-yl)-phenyl]-benzenesulfonamide hydrochloride] | – |
| < 250 nM | Cc1ccc(N(C)S(=O)(=O)c2cccc(OC(F)F)c2)cc1N1CCCNCC1 [Example 3, N-(3-[1,4]Diazepan-1-yl-4-methyl-phenyl)-3-difluoromethoxy-N-methyl-benzenesulfonamide hydrochloride] | – |
| – | iodospiperone [[^125I]-iodospiperone] | Kd (dopamine D2 receptor): 0.22 nM |
| – | Cc1ccc(NS(=O)(=O)c2cccc(OC(F)F)c2)cc1N1CCNCC1 [Example 1, 3-Difluoromethoxy-N-(4-methyl-3-piperazin-1-yl-phenyl)-benzenesulfonamide hydrochloride] | Ki (h-5-HT6 receptor): < 20 nM |
| < 50 nM | Cc1ccc(NS(=O)(=O)c2ccccc2OC(F)F)cc1N1CCCNCC1 [Example 2, N-(3-[1,4]Diazepan-1-yl-4-methyl-phenyl)-2-difluoromethoxy-benzenesulfonamide hydrochloride] | – |
| < 20 nM | Cc1ccc(NS(=O)(=O)c2cccc(OC(F)F)c2)cc1N1CCCNCC1 [Example 4, N-(3-[1,4]Diazepan-1-yl-4-methyl-phenyl)-3-difluoromethoxy-benzenesulfonamide hydrochloride] | – |
